{"source": "ChEMBL document CHEMBL6114982", "about": "“Structural optimization and characterization of highly potent and selective STAT3 inhibitors for the treatment of triple negative breast cancer” (Eur J Med Chem, 2025)", "key": {"[1]": {"tested_on": "MDA-MB-231", "assay": "Antiproliferative activity against human MDA-MB-231 cells assessed as inhibition of cell growth incubated for 72 hrs by SRB method", "assay_type": "functional, cell-based", "conditions": "MDA-MB-231, 72 h"}, "[2]": {"molecular_target": "T1, Signal transducer and activator of transcription 3 (Homo sapiens, UniProt P40763)", "T1 sequence (P40763 whole entry)": "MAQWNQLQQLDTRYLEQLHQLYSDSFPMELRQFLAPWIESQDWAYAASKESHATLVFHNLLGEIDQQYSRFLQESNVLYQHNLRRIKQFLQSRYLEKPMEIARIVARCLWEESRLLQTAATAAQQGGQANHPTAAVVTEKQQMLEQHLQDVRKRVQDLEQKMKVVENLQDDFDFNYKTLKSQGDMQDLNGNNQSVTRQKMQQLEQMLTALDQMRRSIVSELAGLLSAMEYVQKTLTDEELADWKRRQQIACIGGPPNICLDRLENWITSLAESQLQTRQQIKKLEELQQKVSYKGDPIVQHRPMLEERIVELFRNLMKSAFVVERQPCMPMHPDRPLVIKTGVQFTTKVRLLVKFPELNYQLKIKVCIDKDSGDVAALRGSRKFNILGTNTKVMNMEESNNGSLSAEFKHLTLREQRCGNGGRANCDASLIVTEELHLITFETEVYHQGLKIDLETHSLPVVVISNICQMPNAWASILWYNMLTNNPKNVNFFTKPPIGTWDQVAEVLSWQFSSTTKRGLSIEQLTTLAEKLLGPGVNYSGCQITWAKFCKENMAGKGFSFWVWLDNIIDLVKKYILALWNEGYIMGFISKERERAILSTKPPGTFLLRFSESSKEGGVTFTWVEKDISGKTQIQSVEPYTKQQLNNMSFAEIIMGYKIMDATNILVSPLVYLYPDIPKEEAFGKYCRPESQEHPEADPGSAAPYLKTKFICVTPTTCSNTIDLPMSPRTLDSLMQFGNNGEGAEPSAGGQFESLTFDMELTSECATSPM", "assay": "Inhibition of STAT3 phosphorylation at Tyr705 residue in human MDA-MB-231 cells at 0.1 uM by Western blot analysis", "assay_type": "cell-based", "conditions": "time 8-48 hrs"}, "[3]": {"tested_on": "BT-549", "assay": "Effect on STAT3 expression in human BT-549 cells at 0.1 microM measured after 8 to 48 hrs by Western blot analysis", "assay_type": "functional, cell-based", "conditions": "time 8-48 hrs"}, "[4]": {"molecular_target": "Tyrosine-protein kinase JAK2 (Homo sapiens) (UniProt O60674)", "sequence (O60674 whole entry)": "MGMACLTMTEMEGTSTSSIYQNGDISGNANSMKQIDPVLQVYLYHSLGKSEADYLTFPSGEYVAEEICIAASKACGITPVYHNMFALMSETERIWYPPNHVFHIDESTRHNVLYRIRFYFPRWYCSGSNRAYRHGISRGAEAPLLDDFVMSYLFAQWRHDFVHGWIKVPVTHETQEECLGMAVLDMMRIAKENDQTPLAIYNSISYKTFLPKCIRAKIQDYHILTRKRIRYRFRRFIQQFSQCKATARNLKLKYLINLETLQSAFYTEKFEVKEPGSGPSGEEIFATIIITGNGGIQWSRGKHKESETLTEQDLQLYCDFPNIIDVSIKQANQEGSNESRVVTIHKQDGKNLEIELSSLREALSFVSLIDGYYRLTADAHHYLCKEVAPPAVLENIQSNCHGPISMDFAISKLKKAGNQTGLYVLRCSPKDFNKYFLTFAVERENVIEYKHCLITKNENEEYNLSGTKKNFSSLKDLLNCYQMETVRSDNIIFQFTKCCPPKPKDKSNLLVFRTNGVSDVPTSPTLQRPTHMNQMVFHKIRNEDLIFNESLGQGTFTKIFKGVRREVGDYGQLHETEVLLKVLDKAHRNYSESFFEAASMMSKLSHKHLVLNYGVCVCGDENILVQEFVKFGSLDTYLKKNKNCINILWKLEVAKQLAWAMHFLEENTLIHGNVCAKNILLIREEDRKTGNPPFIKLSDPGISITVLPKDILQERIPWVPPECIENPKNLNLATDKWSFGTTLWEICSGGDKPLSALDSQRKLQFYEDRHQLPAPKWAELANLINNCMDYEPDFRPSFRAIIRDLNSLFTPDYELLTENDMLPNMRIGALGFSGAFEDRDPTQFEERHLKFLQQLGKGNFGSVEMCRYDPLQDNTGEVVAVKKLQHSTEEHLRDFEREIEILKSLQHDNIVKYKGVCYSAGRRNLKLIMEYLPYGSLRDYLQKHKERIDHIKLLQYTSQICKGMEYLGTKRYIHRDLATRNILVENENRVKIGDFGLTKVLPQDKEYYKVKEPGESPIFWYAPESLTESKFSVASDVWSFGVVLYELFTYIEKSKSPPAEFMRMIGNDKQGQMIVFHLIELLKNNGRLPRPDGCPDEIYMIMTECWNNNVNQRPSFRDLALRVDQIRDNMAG", "assay": "Inhibition of JAK2 (unknown origin) at upto 10 uM"}, "[5]": {"organism": "Homo sapiens", "assay": "Inhibition of SRC phosphorylation (unknown origin) at […] residue at upto 10 uM"}, "[6]": {"tested_on": "MDA-MB-231", "assay": "Effect on ERK12 phosphorylation level in human MDA-MB-231 cells at 0.05 to 0.5 uM measured after 48 hrs by Western blot analysis", "assay_type": "functional, cell-based", "conditions": "dose 0.05-0.5 µM"}, "[7]": {"tested_on": "MDA-MB-231", "assay": "Effect on STAT1 phosphorylation level in human MDA-MB-231 cells at 0.05 to 0.5 uM measured after 48 hrs by Western blot analysis", "assay_type": "functional, cell-based", "conditions": "dose 0.05-0.5 µM"}, "[8]": {"tested_on": "MDA-MB-231", "assay": "Effect on STAT5 phosphorylation level in human MDA-MB-231 cells at 0.05 to 0.5 uM measured after 48 hrs by Western blot analysis", "assay_type": "functional, cell-based", "conditions": "dose 0.05-0.5 µM"}, "[9]": {"tested_on": "BT-549", "assay": "Effect on ERK1/2 phosphorylation level in human BT-549 cells at 0.05 to 0.5 uM measured after 48 hrs by Western blot analysis", "assay_type": "functional, cell-based", "conditions": "dose 0.05-0.5 µM"}, "[10]": {"tested_on": "BT-549", "assay": "Effect on Akt phosphorylation level in human BT-549 cells at 0.05 to 0.5 uM measured after 48 hrs by Western blot analysis", "assay_type": "functional, cell-based", "conditions": "dose 0.05-0.5 µM"}, "[11]": {"tested_on": "BT-549", "assay": "Effect on STAT1 phosphorylation level in human BT-549 cells at 0.05 to 0.5 uM measured after 48 hrs by Western blot analysis", "assay_type": "functional, cell-based", "conditions": "dose 0.05-0.5 µM"}, "[12]": {"tested_on": "BT-549", "assay": "Effect on STAT5 phosphorylation level in human BT-549 cells at 0.05 to 0.5 uM measured after 48 hrs by Western blot analysis", "assay_type": "functional, cell-based", "conditions": "dose 0.05-0.5 µM"}, "[13]": {"molecular_target": "T1, Signal transducer and activator of transcription 3", "assay": "Inhibition of STAT3 nuclear translocation in human MDA-MB-231 cells assessed as decrease in p-STAT3 at Tyr705 residue at 0.05 to 0.5 uM preincubated for 48 hrs followed by IL-6 addition and measured after 2 hrs by Immunofluorescence analysis", "assay_type": "cell-based", "conditions": "dose 0.05-0.5 µM, time 50.0 hrs"}, "[14]": {"molecular_target": "T1, Signal transducer and activator of transcription 3", "assay": "Inhibition of STAT3 nuclear translocation in human BT-549 cells assessed as decrease in p-STAT3 at Tyr705 residue at 0.05 to 0.5 uM preincubated for 48 hrs followed by IL-6 addition and measured after 2 hrs by Immunofluorescence analysis", "assay_type": "cell-based", "conditions": "dose 0.05-0.5 µM, time 50.0 hrs"}, "[15]": {"tested_on": "BT-549", "assay": "Downregulation of STAT3 phosphorylation level in human BT-549 cells preincubated for 48 hrs followed by IL-6 addition and measured after 2 hrs by Western blot analysis", "assay_type": "functional, cell-based", "conditions": "dose 0.05-0.5 µM, time 50.0 hrs"}, "[16]": {"tested_on": "MDA-MB-231", "assay": "Inhibition of colony formation in human MDA-MB-231 cells measured after 14 days by crystal violet staining based analysis", "assay_type": "functional, cell-based", "conditions": "dose 0.1-0.5 µM, time 14.0 day"}, "[17]": {"tested_on": "MDA-MB-231", "assay": "Inhibition of colony formation in human MDA-MB-231 cells at low concentration measured after 14 days by crystal violet staining based analysis", "assay_type": "functional, cell-based", "conditions": "time 14.0 day"}, "[18]": {"tested_on": "BT-549", "assay": "Inhibition of colony formation in human BT-549 cells at low concentration measured after 14 days by crystal violet staining based analysis", "assay_type": "functional, cell-based", "conditions": "time 14.0 day"}, "[19]": {"tested_on": "MDA-MB-231", "assay": "Inhibition of colony formation in human MDA-MB-231 cells measured after 14 days by soft agar plate cloning assay", "assay_type": "functional, cell-based", "conditions": "time 14.0 day"}, "[20]": {"tested_on": "MDA-MB-231", "assay": "Inhibition of cell migration in human MDA-MB-231 cells assessed as reduction in wound closure proportion at 0.05 to 0.5 uM incubated for 24 hrs by inverted microscopic analysis", "assay_type": "functional, cell-based", "conditions": "dose 0.05-0.5 µM"}, "[21]": {"tested_on": "MDA-MB-231", "assay": "Inhibition of cell invasion in human MDA-MB-231 cells assessed as decrease in number of invaded cells incubated for 24 hrs by crystal violet staining based inverted microscopic analysis", "assay_type": "functional", "conditions": "dose 0.05-0.5 µM"}, "[22]": {"tested_on": "MDA-MB-231", "assay": "Downregulation of N-cadherin expression level in human MDA-MB-231 cells by Western blot analysis", "assay_type": "functional, cell-based"}, "[23]": {"tested_on": "MDA-MB-231", "assay": "Induction of apoptosis in human MDA-MB-231 cells incubated for 48 hrs by Annexin V and PI staining based flow cytometry analysis", "assay_type": "functional, cell-based", "conditions": "dose 0.05-0.5 µM"}, "[24]": {"tested_on": "MDA-MB-231", "assay": "Induction of apoptosis in human MDA-MB-231 cells assessed as late apoptotic at 0.05 uM incubated for 48 hrs by Annexin V and PI staining based flow cytometry analysis (reference value: 2.71%)", "assay_type": "functional"}, "[25]": {"tested_on": "MDA-MB-231", "assay": "Induction of apoptosis in human MDA-MB-231 cells assessed as late apoptotic at 0.1 uM incubated for 48 hrs by Annexin V and PI staining based flow cytometry analysis (reference value: 2.71%)", "assay_type": "functional"}, "[26]": {"tested_on": "MDA-MB-231", "assay": "Antitumor activity against human MDA-MB-231 cells xenografted in female nude BALB/c mouse model assessed as reduction in tumor volume at 10 mg/kg, ip administered every other day for 30 days (reference value: 1522.98 millimeter)", "assay_type": "functional", "conditions": "time 30 day"}, "[27]": {"tested_on": "MDA-MB-231", "assay": "Antitumor activity against human MDA-MB-231 cells xenografted in female nude BALB/c mouse model assessed as tumor growth inhibition at 20 mg/kg, ip administered every other day for 30 days relative to control", "assay_type": "functional", "conditions": "MDA-MB-231, 720 h, time 30 day, read-out: TGI"}, "[28]": {"assay": "Half life in female BALB/c nude mouse administered as iv dose", "assay_type": "ADME, organism-based", "conditions": "in vivo"}, "[29]": {"assay": "Toxicity in female BALB/c nude mouse assessed as change in body weight at 10 to 20 mg/kg, iv measured for 30 days", "assay_type": "organism-based", "conditions": "in vivo, 720 h, dose 10-20 mg/kg, time 30 day"}, "[30]": {"assay": "Toxicity in female BALB/c nude mouse assessed as effect on heart at 10 to 20 mg/kg, iv measured after 30 days by H and E staining based analysis", "assay_type": "organism-based", "conditions": "in vivo, 720 h, dose 10-20 mg/kg, time 30 day"}, "[31]": {"assay": "Toxicity in female BALB/c nude mouse assessed as effect on liver at 10 to 20 mg/kg, iv measured after 30 days by H and E staining based analysis", "assay_type": "organism-based", "conditions": "in vivo, 720 h, dose 10-20 mg/kg, time 30 day"}, "[32]": {"assay": "Toxicity in female BALB/c nude mouse assessed as effect on kidney at 10 to 20 mg/kg, iv measured after 30 days by H and E staining based analysis", "assay_type": "organism-based", "conditions": "in vivo, 720 h, dose 10-20 mg/kg, time 30 day"}, "[33]": {"molecular_target": "T1, Signal transducer and activator of transcription 3", "assay": "Competitive binding affinity to STAT3 SH2 domain (unknown origin) expressed in HEK293T cells assessed as decrease in fluorescence intensity by dual luciferase analysis", "assay_type": "cell-based", "conditions": "dose 0.05-0.5 µM"}, "[34]": {"molecular_target": "T1, Signal transducer and activator of transcription 3", "assay": "Inhibition of STAT3 phosphorylation in human MDA-MB-231 cells assessed as upregulation of HMOX1 expression level", "assay_type": "cell-based"}, "[35]": {"molecular_target": "T1, Signal transducer and activator of transcription 3", "assay": "Inhibition of STAT3 phosphorylation in human MDA-MB-231 cells assessed as downregulation of KRT1 expression level", "assay_type": "cell-based"}, "[36]": {"molecular_target": "T1, Signal transducer and activator of transcription 3", "assay": "Inhibition of STAT3 phosphorylation in human MDA-MB-231 cells assessed as downregulation of KRT10 expression level", "assay_type": "cell-based"}, "[37]": {"molecular_target": "T1, Signal transducer and activator of transcription 3", "assay": "Inhibition of STAT3 phosphorylation in human MDA-MB-231 cells assessed as downregulation of F5 level", "assay_type": "cell-based"}, "[38]": {"molecular_target": "T1, Signal transducer and activator of transcription 3", "assay": "Inhibition of STAT3 in human MDA-MB-231 cells assessed as upregulation of NDUFAB1 level", "assay_type": "cell-based"}}, "note": "Activity calls are given as the source filed them. The calls are words filed in the database; no cut-off is given here.", "data": [{"smiles": "COc1cccc(C(=O)Nc2sc3c(c2C#N)CCN(C(=O)Nc2ccccc2OC)C3)c1", "values": [{"measurement": "IC50", "setting": "[1]", "value": 0.03, "unit": "µM"}, {"measurement": "inhibition", "setting": "[2]", "value": "Time-dependent-effect"}, {"measurement": "Activity", "setting": "[3]", "value": "Active; Compound Showed Little Impact On Stat3 Expression"}, {"measurement": "inhibition", "setting": "[4]", "value": "Active; Compound Showed Little Inhibitory Effect"}, {"measurement": "inhibition", "setting": "[5]", "value": "Active; Compound Showed Little Inhibitory Effect"}, {"measurement": "Activity", "setting": "[6]", "value": "inactive"}, {"measurement": "Activity", "setting": "[7]", "value": "inactive"}, {"measurement": "Activity", "setting": "[8]", "value": "inactive"}, {"measurement": "Activity", "setting": "[9]", "value": "inactive"}, {"measurement": "Activity", "setting": "[10]", "value": "inactive"}, {"measurement": "Activity", "setting": "[11]", "value": "inactive"}, {"measurement": "Activity", "setting": "[12]", "value": "inactive"}, {"measurement": "inhibition", "setting": "[13]", "value": "Active"}, {"measurement": "inhibition", "setting": "[14]", "value": "Active"}, {"measurement": "Activity", "setting": "[15]", "value": "Dose-dependent-effect"}, {"measurement": "inhibition", "setting": "[16]", "value": "Dose-dependent-effect"}, {"measurement": "inhibition", "setting": "[17]", "value": "Active; Compound Showed Robust Inhibition Compared To Positive Control"}, {"measurement": "inhibition", "setting": "[18]", "value": "Active; Compound Showed Robust Inhibition Compared To Positive Control"}, {"measurement": "inhibition", "setting": "[19]", "value": "Active"}, {"measurement": "inhibition", "setting": "[20]", "value": "Active"}, {"measurement": "inhibition", "setting": "[21]", "value": "Dose-dependent-effect"}, {"measurement": "Activity", "setting": "[22]", "value": "Active"}, {"measurement": "Activity", "setting": "[23]", "value": "Dose-dependent-effect"}, {"measurement": "Activity", "setting": "[24]", "value": 12.78, "unit": "%"}, {"measurement": "Activity", "setting": "[25]", "value": 16.08, "unit": "%"}, {"measurement": "tumor volume", "setting": "[26]", "value": 762, "unit": "mm³"}, {"measurement": "inhibition in vivo at 20 mg/kg", "setting": "[27]", "value": 58, "unit": "%"}, {"measurement": "half-life", "setting": "[28]", "value": 23, "unit": "h"}, {"measurement": "Activity", "setting": "[29]", "value": "Toxic"}, {"measurement": "Activity", "setting": "[30]", "value": "Non-toxic"}, {"measurement": "Activity", "setting": "[31]", "value": "Non-toxic"}, {"measurement": "Activity", "setting": "[32]", "value": "Non-toxic"}, {"measurement": "Activity", "setting": "[33]", "value": "Dose-dependent-effect"}, {"measurement": "inhibition", "setting": "[34]", "value": "Active"}, {"measurement": "inhibition", "setting": "[35]", "value": "Active"}, {"measurement": "inhibition", "setting": "[36]", "value": "Active"}, {"measurement": "inhibition", "setting": "[37]", "value": "Active"}, {"measurement": "inhibition", "setting": "[38]", "value": "Active"}]}]}
